Data taken from patent US10167262B2, “Herbicidal substituted 3-arylpyrazoles” (FMC CORPORATION, priority 2014, dated 2019).

Experiments:
Type in all cases: in vivo
[1] = tested on: yellow nutsedge (Cyperus esculentus); assay: Test C pre-/postemergence greenhouse test, plant response rating 0-100; conditions: Postemergence; for Plant response rating, Nutsedge, Yellow: scale 0 to 100
Source text: (§1) Seeds of plant species selected from blackgrass (Alopecurus myosuroides), Italian ryegrass (Lolium multiflorum), winter wheat (Triticum aestivum), galium (catchweed bedstraw, Galium aparine), corn (Zea mays), large (Lg) crabgrass (Digitaria sanguinalis), giant foxtail (Setaria faberii), johnsongrass (Sorghum halepense), lambsquarters (Chenopodium album), morningglory (Ipomoea coccinea), yellow nutsedge (Cyperus esculentus), pigweed (Amaranthus retroflexus), ragweed (common ragweed, Ambrosia elatior), soybean (Glycine max), barnyardgrass (Echinochloa crus-galli), oilseed rape (Brassica napus), waterhemp (common waterhemp, Amaranthus rudis), and velvetleaf (Abutilon theophrasti) were planted into a blend of loam soil and sand and treated preemergence with test chemicals formulated in a non-phytotoxic solvent mixture which included a surfactant.
(§2) At the same time, plants selected from these crop and weed species and also winter barley (Hordeum vulgare), bermudagrass (Cynodon dactylon), downy bromegrass (Bromus tectorum), canarygrass (Phalaris minor), cocklebur (common cocklebur, Xanthium strumarium), woolly cupgrass (Eriochloa villosa), deadnettle (henbit deadnettle, Lamium amplexicaule), green foxtail (Setaria viridis), goosegrass (Eleusine indica), surinam grass (Brachiaria decumbens), windgrass (Apera spica-venti), chickweed (common chickweed, Stellaria media), kochia (Kochia scoparia), and wild oat (Avena fatua), were planted in pots containing Redi-Earth® planting medium (Scotts Company, 14111 Scottslawn Road, Marysville, Ohio 43041) comprising spaghnum peat moss, vermiculite, wetting agent and starter nutrients and treated with postemergence applications of test chemicals formulated in the same manner. Plants ranged in height from 2 to 18 cm (1- to 4-leaf stage) for postemergence treatments. Treated plants and controls were maintained in a greenhouse for 13 to 15 days, after which time all species were compared to controls and visually evaluated. Plant response ratings, summarized in Table C, are based on a scale of 0 to 100 where 0 is no effect and 100 is complete control. A dash (-) response means no test result.

[2] = tested on: giant foxtail (Setaria faberii); assay: as above; conditions: Postemergence; for Plant response rating, Foxtail, Giant: scale 0 to 100
Source text: as §1, §2

[3] = tested on: blackgrass (Alopecurus myosuroides); assay: as above; conditions: Postemergence; for Plant response rating, Blackgrass: scale 0 to 100
Source text: as §1, §2

[4] = tested on: large (Lg) crabgrass (Digitaria sanguinalis); assay: as above; conditions: Postemergence; for Plant response rating, Crabgrass, Large: scale 0 to 100
Source text: as §1, §2

[5] = tested on: galium (catchweed bedstraw, Galium aparine); assay: as above; conditions: Postemergence; for Plant response rating, Galium: scale 0 to 100
Source text: as §1, §2

[6] = tested on: pigweed (Amaranthus retroflexus); assay: as above; conditions: Postemergence; for Plant response rating, Pigweed: scale 0 to 100
Source text: as §1, §2

[7] = tested on: Italian ryegrass (Lolium multiflorum); assay: as above; conditions: Postemergence; for Plant response rating, Ryegrass, Italian: scale 0 to 100
Source text: as §1, §2

[8] = tested on: soybean (Glycine max); assay: as above; conditions: Postemergence; for Plant response rating, Soybean: scale 0 to 100
Source text: as §1, §2

[9] = tested on: winter wheat (Triticum aestivum); assay: as above; conditions: Postemergence; for Plant response rating, Wheat: scale 0 to 100
Source text: as §1, §2

[10] = tested on: ragweed (common ragweed, Ambrosia elatior); assay: as above; conditions: Postemergence; for Plant response rating, Ragweed: scale 0 to 100
Source text: as §1, §2

[11] = tested on: corn (Zea mays); assay: as above; conditions: Postemergence; for Plant response rating, Corn: scale 0 to 100
Source text: as §1, §2

[12] = tested on: kochia (Kochia scoparia); assay: Test C postemergence greenhouse test, plant response rating 0-100; conditions: for Plant response rating, Kochia: scale 0 to 100
How it was run: (§3)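 Visual rating vs. controls, 0 (no effect) to 100 (complete control), 13–15 d after postemergence treatment. Potted plants, 1- to 4-leaf stage (2–18 cm), greenhouse-held.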

[13] = tested on: wild oat (Avena fatua); assay: as above; conditions: for Plant response rating, Oat, Wild: scale 0 to 100
How it was run: as §3

[14] = tested on: chickweed (common chickweed, Stellaria media); assay: as above; conditions: for Plant response rating, Chickweed: scale 0 to 100
How it was run: as §3

## Clc1cc(Cl)cc(-c2n[nH]cc2C(=NNc2ccccc2Cl)c2ccccc2)c1 [Compound 66]
[1]; 62 g ai/ha
  Plant response rating (0 to 100), Nutsedge, Yellow: 0
[1]; 125 g ai/ha
  Plant response rating (0 to 100), Nutsedge, Yellow: 0
[1]; 250 g ai/ha
  Plant response rating, Nutsedge, Yellow: 0
[1]; 500 g ai/ha
  Plant response rating, Nutsedge, Yellow: 0
[2]; 62 g ai/ha
  Plant response rating (0 to 100), Foxtail, Giant: 0
[2]; 125 g ai/ha
  Plant response rating (0 to 100), Foxtail, Giant: 0
[2]; 250 g ai/ha
  Plant response rating, Foxtail, Giant: 0
[2]; 500 g ai/ha
  Plant response rating, Foxtail, Giant: 0
[3]; 62 g ai/ha
  Plant response rating (0 to 100), Blackgrass: 0
[3]; 125 g ai/ha
  Plant response rating (0 to 100), Blackgrass: 0
[3]; 250 g ai/ha
  Plant response rating, Blackgrass: 0
[3]; 500 g ai/ha
  Plant response rating, Blackgrass: 0
[4]; 62 g ai/ha
  Plant response rating (0 to 100), Crabgrass, Large: 0
[4]; 125 g ai/ha
  Plant response rating (0 to 100), Crabgrass, Large: 0
[4]; 250 g ai/ha
  Plant response rating, Crabgrass, Large: 0
[4]; 500 g ai/ha
  Plant response rating, Crabgrass, Large: 0
[5]; 62 g ai/ha
  Plant response rating (0 to 100), Galium: 0
[5]; 125 g ai/ha
  Plant response rating (0 to 100), Galium: 0
[5]; 250 g ai/ha
  Plant response rating, Galium: 0
[5]; 500 g ai/ha
  Plant response rating, Galium: 5
[6]; 62 g ai/ha
  Plant response rating (0 to 100), Pigweed: 55
[6]; 125 g ai/ha
  Plant response rating (0 to 100), Pigweed: 85
[6]; 250 g ai/ha
  Plant response rating, Pigweed: 95
[6]; 500 g ai/ha
  Plant response rating, Pigweed: 100
[7]; 62 g ai/ha
  Plant response rating (0 to 100), Ryegrass, Italian: 0
[7]; 125 g ai/ha
  Plant response rating (0 to 100), Ryegrass, Italian: 0
[7]; 250 g ai/ha
  Plant response rating, Ryegrass, Italian: 0
[7]; 500 g ai/ha
  Plant response rating, Ryegrass, Italian: 0
[8]; 62 g ai/ha
  Plant response rating (0 to 100), Soybean: 0
[8]; 125 g ai/ha
  Plant response rating (0 to 100), Soybean: 0
[8]; 250 g ai/ha
  Plant response rating, Soybean: 0
[8]; 500 g ai/ha
  Plant response rating, Soybean: 5
[9]; 62 g ai/ha
  Plant response rating (0 to 100), Wheat: 0
[9]; 125 g ai/ha
  Plant response rating (0 to 100), Wheat: 0
[9]; 250 g ai/ha
  Plant response rating, Wheat: 0
[9]; 500 g ai/ha
  Plant response rating, Wheat: 0
[10]; 62 g ai/ha
  Plant response rating (0 to 100), Ragweed: 10
[10]; 125 g ai/ha
  Plant response rating (0 to 100), Ragweed: 80
[10]; 500 g ai/ha
  Plant response rating, Ragweed: 95
[11]; 62 g ai/ha
  Plant response rating (0 to 100), Corn: 0
[11]; 125 g ai/ha
  Plant response rating (0 to 100), Corn: 0
[11]; 250 g ai/ha
  Plant response rating, Corn: 5
[11]; 500 g ai/ha
  Plant response rating, Corn: 5
[12]; 62 g ai/ha
  Plant response rating (0 to 100), Kochia: 60
[12]; 125 g ai/ha
  Plant response rating (0 to 100), Kochia: 65
[12]; 250 g ai/ha
  Plant response rating, Kochia: 75
[12]; 500 g ai/ha
  Plant response rating, Kochia: 95
[13]; 62 g ai/ha
  Plant response rating (0 to 100), Oat, Wild: 0
[13]; 125 g ai/ha
  Plant response rating (0 to 100), Oat, Wild: 0
[13]; 250 g ai/ha
  Plant response rating, Oat, Wild: 0
[13]; 500 g ai/ha
  Plant response rating, Oat, Wild: 0
[14]; 62 g ai/ha
  Plant response rating (0 to 100), Chickweed: 100
[14]; 125 g ai/ha
  Plant response rating (0 to 100), Chickweed: 100
[14]; 250 g ai/ha
  Plant response rating, Chickweed: 100
[14]; 500 g ai/ha
  Plant response rating, Chickweed: 100

## Cn1cc(C(=O)c2ccccc2)c(-c2cc(Br)cc(Br)c2)n1 [Compound 53]
[1]; 62 g ai/ha
  Plant response rating (0 to 100), Nutsedge, Yellow: 0
[1]; 125 g ai/ha
  Plant response rating (0 to 100), Nutsedge, Yellow: 0
[1]; 250 g ai/ha
  Plant response rating, Nutsedge, Yellow: 0
[1]; 500 g ai/ha
  Plant response rating, Nutsedge, Yellow: 0
[2]; 62 g ai/ha
  Plant response rating (0 to 100), Foxtail, Giant: 0
[2]; 125 g ai/ha
  Plant response rating (0 to 100), Foxtail, Giant: 0
[2]; 250 g ai/ha
  Plant response rating, Foxtail, Giant: 10
[2]; 500 g ai/ha
  Plant response rating, Foxtail, Giant: 10
[3]; 62 g ai/ha
  Plant response rating (0 to 100), Blackgrass: 0
[3]; 125 g ai/ha
  Plant response rating (0 to 100), Blackgrass: 0
[3]; 250 g ai/ha
  Plant response rating, Blackgrass: 0
[3]; 500 g ai/ha
  Plant response rating, Blackgrass: 0
[4]; 62 g ai/ha
  Plant response rating (0 to 100), Crabgrass, Large: 0
[4]; 125 g ai/ha
  Plant response rating (0 to 100), Crabgrass, Large: 0
[4]; 250 g ai/ha
  Plant response rating, Crabgrass, Large: 0
[4]; 500 g ai/ha
  Plant response rating, Crabgrass, Large: 0
[5]; 62 g ai/ha
  Plant response rating (0 to 100), Galium: 0
[5]; 125 g ai/ha
  Plant response rating (0 to 100), Galium: 0
[5]; 250 g ai/ha
  Plant response rating, Galium: 0
[5]; 500 g ai/ha
  Plant response rating, Galium: 10
[6]; 62 g ai/ha
  Plant response rating (0 to 100), Pigweed: 85
[6]; 125 g ai/ha
  Plant response rating (0 to 100), Pigweed: 85
[6]; 250 g ai/ha
  Plant response rating, Pigweed: 90
[6]; 500 g ai/ha
  Plant response rating, Pigweed: 90
[7]; 62 g ai/ha
  Plant response rating (0 to 100), Ryegrass, Italian: 0
[7]; 125 g ai/ha
  Plant response rating (0 to 100), Ryegrass, Italian: 0
[7]; 250 g ai/ha
  Plant response rating, Ryegrass, Italian: 0
[7]; 500 g ai/ha
  Plant response rating, Ryegrass, Italian: 0
[8]; 62 g ai/ha
  Plant response rating (0 to 100), Soybean: 0
[8]; 125 g ai/ha
  Plant response rating (0 to 100), Soybean: 0
[8]; 250 g ai/ha
  Plant response rating, Soybean: 0
[8]; 500 g ai/ha
  Plant response rating, Soybean: 5
[9]; 62 g ai/ha
  Plant response rating (0 to 100), Wheat: 0
[9]; 125 g ai/ha
  Plant response rating (0 to 100), Wheat: 0
[9]; 250 g ai/ha
  Plant response rating, Wheat: 0
[9]; 500 g ai/ha
  Plant response rating, Wheat: 0
[10]; 62 g ai/ha
  Plant response rating (0 to 100), Ragweed: 10
[10]; 125 g ai/ha
  Plant response rating (0 to 100), Ragweed: 10
[10]; 250 g ai/ha
  Plant response rating, Ragweed: 10
[10]; 500 g ai/ha
  Plant response rating, Ragweed: 10
[11]; 62 g ai/ha
  Plant response rating (0 to 100), Corn: 5
[11]; 125 g ai/ha
  Plant response rating (0 to 100), Corn: 5
[11]; 250 g ai/ha
  Plant response rating, Corn: 5
[11]; 500 g ai/ha
  Plant response rating, Corn: 5
[12]; 62 g ai/ha
  Plant response rating (0 to 100), Kochia: 25
[12]; 125 g ai/ha
  Plant response rating (0 to 100), Kochia: 45
[12]; 250 g ai/ha
  Plant response rating, Kochia: 60
[12]; 500 g ai/ha
  Plant response rating, Kochia: 60
[13]; 62 g ai/ha
  Plant response rating (0 to 100), Oat, Wild: 0
[13]; 125 g ai/ha
  Plant response rating (0 to 100), Oat, Wild: 0
[13]; 250 g ai/ha
  Plant response rating, Oat, Wild: 0
[13]; 500 g ai/ha
  Plant response rating, Oat, Wild: 0
[14]; 62 g ai/ha
  Plant response rating (0 to 100), Chickweed: 50
[14]; 125 g ai/ha
  Plant response rating (0 to 100), Chickweed: 50
[14]; 250 g ai/ha
  Plant response rating, Chickweed: 100
[14]; 500 g ai/ha
  Plant response rating, Chickweed: 100
